Three compounds from ChEMBL document CHEMBL5653631, “A Potent and Selective ULK1 Inhibitor Suppresses Autophagy and Sensitizes Cancer Cells to Nutrient Stress” (iScience, 2018) can be followed below.

Experiment [1] has as its target Cyclin-dependent kinase 18 (Homo sapiens) (UniProt Q07002). Kind of experiment: Inhibition of human recombinant PCTAIRE3 at 40 nM related to control ULK1.
For experiment [2], the target named is Protein kinase C theta type (Homo sapiens) (UniProt Q04759). The experiment is described as follows: Inhibition of human recombinant PKCt at 40 nM in presence of ATP by radiometric assay relative to control.
Protein kinase C theta type (Homo sapiens), sequence (Q04759 whole entry, looked up): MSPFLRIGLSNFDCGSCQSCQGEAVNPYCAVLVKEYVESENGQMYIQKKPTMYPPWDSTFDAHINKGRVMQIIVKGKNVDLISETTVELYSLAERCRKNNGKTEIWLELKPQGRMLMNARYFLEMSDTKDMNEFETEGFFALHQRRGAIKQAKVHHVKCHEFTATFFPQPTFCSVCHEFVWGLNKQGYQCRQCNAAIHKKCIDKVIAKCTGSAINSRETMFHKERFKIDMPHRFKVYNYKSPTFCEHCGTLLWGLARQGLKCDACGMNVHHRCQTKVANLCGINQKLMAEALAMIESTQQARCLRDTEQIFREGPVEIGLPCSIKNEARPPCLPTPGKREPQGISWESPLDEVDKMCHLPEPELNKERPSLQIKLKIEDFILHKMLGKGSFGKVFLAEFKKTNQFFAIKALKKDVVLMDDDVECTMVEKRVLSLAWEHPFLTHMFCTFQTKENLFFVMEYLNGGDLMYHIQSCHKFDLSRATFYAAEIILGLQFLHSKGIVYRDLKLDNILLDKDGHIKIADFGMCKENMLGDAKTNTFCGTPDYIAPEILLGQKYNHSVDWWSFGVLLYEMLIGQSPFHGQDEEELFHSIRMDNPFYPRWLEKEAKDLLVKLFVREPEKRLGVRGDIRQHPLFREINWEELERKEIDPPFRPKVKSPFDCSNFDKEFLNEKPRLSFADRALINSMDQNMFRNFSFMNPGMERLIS
Experiment [3] concerns the target MAP kinase-activated protein kinase 3 (Homo sapiens) (UniProt Q16644). The experiment is described as follows: Inhibition of human recombinant MAPKAPK3 at 40 nM in presence of ATP by radiometric assay relative to control.
Experiment [4] addresses T1, Mitogen-activated protein kinase kinase kinase 3 (Homo sapiens) (UniProt Q99759).
T1 sequence (whole entry): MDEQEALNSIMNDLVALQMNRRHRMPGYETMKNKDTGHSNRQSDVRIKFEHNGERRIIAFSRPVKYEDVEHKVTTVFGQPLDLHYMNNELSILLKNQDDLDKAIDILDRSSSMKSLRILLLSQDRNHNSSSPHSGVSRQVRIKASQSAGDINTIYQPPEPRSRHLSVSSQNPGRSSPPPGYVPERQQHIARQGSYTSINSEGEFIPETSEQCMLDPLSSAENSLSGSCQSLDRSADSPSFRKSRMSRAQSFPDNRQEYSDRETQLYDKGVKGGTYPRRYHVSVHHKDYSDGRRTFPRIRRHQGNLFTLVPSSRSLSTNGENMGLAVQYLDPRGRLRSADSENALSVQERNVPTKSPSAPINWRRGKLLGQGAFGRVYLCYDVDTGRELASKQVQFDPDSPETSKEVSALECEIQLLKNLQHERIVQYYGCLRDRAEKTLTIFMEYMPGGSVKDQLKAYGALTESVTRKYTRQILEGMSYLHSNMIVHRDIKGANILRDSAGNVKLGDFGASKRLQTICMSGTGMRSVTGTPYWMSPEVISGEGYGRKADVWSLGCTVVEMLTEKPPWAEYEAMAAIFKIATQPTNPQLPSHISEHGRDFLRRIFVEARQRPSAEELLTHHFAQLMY
Kind of experiment: Inhibition of human recombinant MAP3K3 at 500 nM related to control ULK1.

For experiment [5], the target named is T2, SNF-related serine/threonine-protein kinase (Homo sapiens) (UniProt Q9NRH2).
T2 sequence (whole entry): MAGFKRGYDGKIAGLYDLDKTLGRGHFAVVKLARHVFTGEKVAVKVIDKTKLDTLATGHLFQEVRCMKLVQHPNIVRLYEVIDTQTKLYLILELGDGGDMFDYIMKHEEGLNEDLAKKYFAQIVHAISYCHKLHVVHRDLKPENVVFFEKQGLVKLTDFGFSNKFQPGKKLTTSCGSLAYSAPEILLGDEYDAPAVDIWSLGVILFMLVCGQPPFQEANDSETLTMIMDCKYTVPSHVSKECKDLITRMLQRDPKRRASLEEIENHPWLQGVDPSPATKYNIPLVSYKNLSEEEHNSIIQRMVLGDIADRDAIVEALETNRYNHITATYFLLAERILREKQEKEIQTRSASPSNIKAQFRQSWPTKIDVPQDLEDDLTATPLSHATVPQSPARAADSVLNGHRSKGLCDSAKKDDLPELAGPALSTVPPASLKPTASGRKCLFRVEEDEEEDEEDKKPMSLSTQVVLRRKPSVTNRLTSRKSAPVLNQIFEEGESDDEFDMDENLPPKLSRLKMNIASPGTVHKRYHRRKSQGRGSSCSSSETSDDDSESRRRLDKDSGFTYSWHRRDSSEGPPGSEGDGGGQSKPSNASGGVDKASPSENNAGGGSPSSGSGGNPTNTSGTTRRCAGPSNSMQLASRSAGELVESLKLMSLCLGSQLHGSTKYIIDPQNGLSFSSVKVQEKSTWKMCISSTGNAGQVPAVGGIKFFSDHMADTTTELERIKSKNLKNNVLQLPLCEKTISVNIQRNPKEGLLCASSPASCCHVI
Kind of experiment: Inhibition of human recombinant SNRK at 500 nM in presence of ATP by radiometric assay relative to control.

Experiment [6] deals with T3, Receptor-interacting serine/threonine-protein kinase 1 (Homo sapiens) (UniProt Q13546).
T3 sequence (whole entry): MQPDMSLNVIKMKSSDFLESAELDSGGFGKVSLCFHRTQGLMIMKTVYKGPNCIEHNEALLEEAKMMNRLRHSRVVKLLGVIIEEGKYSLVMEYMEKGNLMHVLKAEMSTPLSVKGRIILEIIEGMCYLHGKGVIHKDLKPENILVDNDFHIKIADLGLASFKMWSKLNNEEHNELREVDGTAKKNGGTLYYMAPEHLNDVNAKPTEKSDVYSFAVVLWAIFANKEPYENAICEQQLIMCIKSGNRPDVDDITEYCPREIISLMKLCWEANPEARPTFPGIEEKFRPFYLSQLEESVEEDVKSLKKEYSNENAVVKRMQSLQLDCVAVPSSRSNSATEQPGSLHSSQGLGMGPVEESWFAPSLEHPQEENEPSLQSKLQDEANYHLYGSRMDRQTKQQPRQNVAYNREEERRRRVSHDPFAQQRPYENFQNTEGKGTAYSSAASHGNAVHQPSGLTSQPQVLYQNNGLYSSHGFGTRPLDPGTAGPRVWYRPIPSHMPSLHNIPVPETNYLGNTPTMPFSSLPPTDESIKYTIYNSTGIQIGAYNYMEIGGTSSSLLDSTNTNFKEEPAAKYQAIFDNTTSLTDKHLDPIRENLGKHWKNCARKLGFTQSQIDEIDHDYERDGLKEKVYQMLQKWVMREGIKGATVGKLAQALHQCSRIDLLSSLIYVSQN
Kind of experiment: Inhibition of human recombinant RIPK1 at 15 nM in presence of ATP by radiometric assay relative to control.

Experiment [7] deals with Tyrosine-protein kinase Lck (Homo sapiens) (UniProt P06239). Kind of experiment: Inhibition of human recombinant LCK at 15 nM in presence of ATP by radiometric assay relative to control.
Tyrosine-protein kinase Lck (Homo sapiens), sequence (P06239 2-509 limits assumed): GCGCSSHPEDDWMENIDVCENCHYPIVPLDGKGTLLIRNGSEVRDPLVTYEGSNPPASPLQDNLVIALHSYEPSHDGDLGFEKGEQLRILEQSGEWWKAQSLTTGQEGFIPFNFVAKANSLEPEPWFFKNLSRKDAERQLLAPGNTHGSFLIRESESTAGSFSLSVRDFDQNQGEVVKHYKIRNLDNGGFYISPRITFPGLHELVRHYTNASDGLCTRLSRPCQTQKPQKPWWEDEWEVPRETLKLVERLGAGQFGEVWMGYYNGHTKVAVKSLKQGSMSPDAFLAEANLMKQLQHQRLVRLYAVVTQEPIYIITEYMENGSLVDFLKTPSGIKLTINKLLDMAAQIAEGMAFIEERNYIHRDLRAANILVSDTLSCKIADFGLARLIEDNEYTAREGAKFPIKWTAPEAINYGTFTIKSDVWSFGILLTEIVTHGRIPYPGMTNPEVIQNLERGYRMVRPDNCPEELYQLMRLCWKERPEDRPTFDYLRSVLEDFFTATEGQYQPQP

Structures are written as SMILES.

MAP kinase-activated protein kinase 3 (Homo sapiens), sequence (Q16644 whole entry, looked up): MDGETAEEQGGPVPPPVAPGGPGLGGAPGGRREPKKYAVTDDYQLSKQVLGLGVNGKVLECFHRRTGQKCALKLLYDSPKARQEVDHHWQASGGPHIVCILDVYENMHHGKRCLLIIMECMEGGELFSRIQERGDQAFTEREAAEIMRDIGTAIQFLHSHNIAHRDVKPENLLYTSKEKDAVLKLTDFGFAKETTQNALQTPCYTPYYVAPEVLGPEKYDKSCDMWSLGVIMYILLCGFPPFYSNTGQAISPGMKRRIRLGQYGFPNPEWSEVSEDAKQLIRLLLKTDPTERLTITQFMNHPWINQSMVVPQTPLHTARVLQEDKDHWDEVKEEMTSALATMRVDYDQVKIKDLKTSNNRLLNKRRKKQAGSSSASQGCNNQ
Cyclin-dependent kinase 18 (Homo sapiens), sequence (Q07002 whole entry): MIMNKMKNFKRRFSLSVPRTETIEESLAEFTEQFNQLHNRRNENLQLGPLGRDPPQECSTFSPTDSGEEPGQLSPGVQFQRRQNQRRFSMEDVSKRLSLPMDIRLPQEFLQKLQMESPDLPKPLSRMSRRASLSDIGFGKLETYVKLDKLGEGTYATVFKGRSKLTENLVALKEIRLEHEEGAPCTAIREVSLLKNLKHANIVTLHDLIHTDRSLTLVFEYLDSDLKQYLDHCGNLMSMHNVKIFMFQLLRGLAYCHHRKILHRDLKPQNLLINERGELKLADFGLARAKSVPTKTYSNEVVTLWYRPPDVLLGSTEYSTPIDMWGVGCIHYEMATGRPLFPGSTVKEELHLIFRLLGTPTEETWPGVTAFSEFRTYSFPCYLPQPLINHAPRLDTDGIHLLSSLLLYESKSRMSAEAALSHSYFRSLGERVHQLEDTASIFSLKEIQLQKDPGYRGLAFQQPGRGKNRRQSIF

The inhibition is the change of the read-out against control, counted positive when it falls. In the case of `O=C(N[C@@H](C1CC1)C(F)(F)F)c1cc(-c2cnn3cc(-c4ccc(F)cc4)cnc23)cs1`, the fold change (FC) in experiment [1] was determined as 0.42. Besides, the inhibition in experiment [2] and in experiment [3] was 0% each time.

Turning to `CNC(=O)c1ccccc1Oc1nc(Nc2cc(OC)c(OC)c(OC)c2)ncc1Br`, the fold change (FC) in experiment [4] amounted to 0. Further, in experiment [5], the inhibition was found to be 0%.

With `CC(C)[C@H](NC(=O)c1cc(-c2cnn3cc(-c4ccc(OCCN5CCCCC5)cc4)cnc23)cs1)C(F)(F)F`, the inhibition in experiment [6] stood at 1%; in experiment [7], 11%.
